Laboratory results reported in PubChem BioAssay (NCI).
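In this assay, cells in 96-well plates receive the compound at five concentrations for 48 hours. Endpoints are linearly interpolated between the surrounding concentrations. Definition used: TGI = concentration required for complete inhibition of growth.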

Tests used:
Test in all cases: NCI-60 cell line screen, 48 h
HOP-92 NSCLC = tested on: HOP-92 NSCLC
SNB-75 CNS = tested on: SNB-75 CNS
MDA-MB-231 breast = tested on: MDA-MB-231 breast
OVCAR-8 ovarian = tested on: OVCAR-8 ovarian
NCI-H226 lung = tested on: NCI-H226 lung
NCI/ADR-RES ovarian = tested on: NCI/ADR-RES ovarian
ACHN renal = tested on: ACHN renal
COLO 205 colon = tested on: COLO 205 colon
RPMI-8226 leukemia = tested on: RPMI-8226 leukemia
SF-268 CNS = tested on: SF-268 CNS

| SMILES | TGI (HOP-92 NSCLC) [µM] | TGI (SNB-75 CNS) [µM] | TGI (MDA-MB-231 breast) [µM] | TGI (OVCAR-8 ovarian) [µM] | TGI (NCI-H226 lung) [µM] | TGI (NCI/ADR-RES ovarian) [µM] | TGI (ACHN renal) [µM] | TGI (COLO 205 colon) [µM] | TGI (RPMI-8226 leukemia) [µM] | TGI (SF-268 CNS) [µM] |
| --- | --- | --- | --- | --- | --- | --- | --- | --- | --- | --- |
| CCCNc1ncnc2c1ncn2C | > 100 | > 100 | > 100 | > 100 | > 100 | > 100 | > 100 | > 100 | > 100 | – |
| CCOc1cc(/C=C2/C(C)=NN(c3cccc(Cl)c3)/C2=N/c2nc3ccccc3s2)ccc1O | 67.8 | > 100 | 59.6 | > 100 | 68 | 55.9 | 63.6 | – | > 100 | 86.1 |
| O=P(O)(O)C(N=C(Nc1ccccc1)Nc1ccccc1)P(=O)(O)O | – | – | > 100 | > 100 | > 100 | > 100 | > 100 | > 100 | – | > 100 |
| CCOC(=O)C1S/C(=N\C(=N)N[N+](=O)[O-])N=C1C (stereo not drawn) | > 100 | > 100 | – | > 100 | > 100 | – | > 100 | > 100 | > 100 | > 100 |
| COC(C)(C)C1(O)CC[C@@H](C)CC1=O (stereo partly drawn) | > 100 | > 100 | – | > 100 | – | – | > 100 | > 100 | > 100 | > 100 |
| CC(c1ccccc1)N1CCN(C(C)c2ccccc2)CC1 (stereo not drawn) | > 100 | – | > 100 | > 100 | > 100 | > 100 | > 100 | – | > 100 | > 100 |
